Data on one compound can be found in patent US20250275993A1, “GLYCOSYLATION INHIBITORS AS THERAPEUTICS FOR STROKE” (The Regents of the University of California, priority 2022, published 2025).

The test system of one series is brain infarction. In words: Middle cerebral artery occlusion (MCAO) stroke model. Type of series: in vivo, mouse.
The test system of another series is 4T1 cells. Briefly: 4T1 proliferation assay (MTS). Type of series: cell-based.
In a further series the test system is VEGFR2 on cell surface. Briefly: Biotinylation of surface proteins in BCECs. Type of series: cell-based, bovine. The settings on record: ManN-treated BCECs. On the procedure: BCECs were plated in 10 cm cell culture dishes 3 days prior to the cell surface protein isolation. Cells were washed three times with Dulbecco's PBS with CaCl2 and MgCl2, followed by a 30 min incubation with EZ-Link Sulfo-NHS-SS-Biotin (Pierce, Rockford, IL, USA; 0.5 mg/ml in Dulbecco) on ice. Cells were washed twice with Dulbecco and the non-reacted biotin was blocked with 20 mM glycine for 15 mins. To prevent the reduction of the disulfide bridge in the biotin molecule during the cell lysis process, a 100 μM oxidized glutathione (Sigma-Aldrich, St. Louis, MO) was added in the last wash solution. For cell lysis 500 μL of lysis buffer (2% NP-40, 1% Triton X-100, 10% glycerol, 100 μM oxidized glutathione, EDTA free protease inhibitor tablet (Roche, Mannheim, Germany) in PBS was added to the cells. Lysed cell extracts were scraped off the plates and transferred to an Eppendorf tube followed by incubation on ice on a shaker for 30 mins. The cell extracts were incubated with 30 U of DNase (22° C. 50 mins, Roche, Mannheim, Germany) and centrifuged for 20 mins (20,800×g, at 4° C.) to pellet the insoluble material. The protein concentration of the supernatants was determined. Equal amounts of protein (−2 mg) from each extract were used for cell surface protein isolation. […]

A further series deals with BCEC. In words: BCEC transwell migration assay. Type of series: cell-based, bovine. Particulars: ManN at 40 μM. The protocol:
HUVECs (passage 6-8) were cultured and serum-starved as described in “Western Blots”. Ten thousand cells in […] of EBM-2 medium were then added to the upper chamber of […] pore size cell culture inserts (Falcon) coated with 0.1% gelatin. The lower compartment was filled with […] EBM-2 medium containing various agents. The plates were incubated at 37° C. to allow migration. After 4 hrs, cells were fixed with 4% PFA for 20 min and then stained with crystal violet (Sigma-Aldrich) for 20 min at RT. Migrated cells on the bottom side of the insert membrane were quantified by counting whole area of the insert at 40× magnification. The experiments were carried out in triplicate and repeated three times. BCEC migration was set up similarly, except that wells were coated with FN, cells were suspended in 1% serum media and migration time was 18-24 hrs.

In series [1] the test system is VEGF, VEGFR2 and GLUT1 & 4. In words: Gene expression analysis by real-time Q PCR in BCECs. Type of series: cell-based, bovine. Particulars: various concentrations of ManN; 4 hours (gene) or 24 hours (protein). On the procedure:
RNA was prepared using the RNeasy Mini Kit (Qiagen). Fifty ng of total RNA per reaction was used for the real-time PCR (Taqman) analysis. Reactions were set up in MicroAmp Fast Optical 96-well reaction plate, seal with MicroAmp optical Adhesion film and run on ViiA7 Real time PCR system (Applied Biosystems) and the absolute quantification with standard curve was used with Sequence Detection System (SDS) software. The expression level of each gene was further quantified relative to the housekeeping gene RPL19 in the same sample. Taqman primers and probe mixes were obtained from Thermo Fisher Scientific. Bovine VEGF-A (Bt03213282), bovine RPL19 (Bt03229687) and bovine specific VEGFR2 (Bt03258877), GLUT1 (Bt03215313) and GLUT4 (Bt03215316).

Series [2] relates to human retinal microvascular EC (hRMECs). In words: hRMEC proliferation assay. The class given is cell-based. The protocol: Proliferation assays with BCECs and BRECs were performed. Log-phase growing BCECs or BRECs (passage <10) were trypsinized, re-suspended and seeded in 96-well plates (no coating) in low-glucose DMEM supplemented with 10% bovine calf serum, 2 mM glutamine, and antibiotics (growth medium), at a density of 1200-1500 cells per well in 200 μl volume. All reagents were added at the indicated final concentrations. After 3-6 days, cells were incubated with AlamarBlue for 4 hrs. Fluorescence was measured at 530 nm excitation wavelength and 590 nm emission wavelength. The experiments were repeated at least three times. To create a hypoxic condition, cells were placed in a hypoxia incubator with a mixture of gas consisting of 1% O2, 5% CO2 and 94% N2. On each 96-well plate, untreated and VEGF-treated (10/ng/ml) wells were included to monitor plate-to-plate variations. 20% methanol or 0.05% DMSO served as negative controls. […] Human RMVECs and human adult DMVECs were split into Gelatin-coated 96 wells (2000 cells per well) in low glucose DMEM containing 10% FBS. 1200 cells/well was set up for proliferation assay in low glucose media containing 0.5% FBS. Data was collected at day 4 or 5. HUVEC (p7-10) were grown on gelatin-coated plate until it reached 70-80% confluency.

Turning to `N[C@H](C=O)[C@@H](O)[C@H](O)[C@H](O)CO` [ManN, 2-Amino-2-deoxy-D-mannose], the “histopathological alterations (H&E), Day 4” value in the series with brain infarction (40 mg ManN Day -1, 1, 3) is given as “ameliorates histopathological alterations”. Also, the “vascular density (CD31) in cerebral cortex affected by infarct, Day 6” value in the series on brain infarction (40 mg ManN Day -1, 1, 3, 5, p<0.001) is on record as “significantly increased vascular density”. Also, the “infarction area, Day 4 MRI, first and second experiment” value in the series on brain infarction (40 mg ManN oral gavage Day -1 and every 48 hours, 4 animals per group) was “markedly smaller infarction area”. In addition, the “overall infarction area, combined analysis” value in the series with brain infarction (4 days post-acute ischemic event, FIG. 12D) is recorded as “statistically significant effect of ManN treatment in reducing overall infarction area”. The “TTC staining of coronal slices at Day 4” value in the series on brain infarction (FIG. 13C) was “lack of large regions of white staining”. In the series with brain infarction (p<0.001 vs vehicle, FIG. 13B), the “CNS infarct volume at Day 4 (MRI), additional animals” value is “significantly reduced CNS infarct volume”. Moreover, in the series on brain infarction (vs vehicle (H2O), FIG. 13A), the “infarct area on Day 2 and Day 4 (MRI images)” value is reported as “Reduction in infarct area is noticeable”. The “toxicity on 4T1 cells” value with 4T1 cells (5 mM) is recorded as “significant toxicity”. Also, the “growth of 4T1” value in the series on 4T1 cells (ManN, MTS) was “did not promote growth”. Also, in the series with VEGFR2 on cell surface, the “amount of VEGFR2 on cell surface” value is “no changes”. Further, the “additivity with VEGF in BCEC migration” value with BCEC was “significant additivity with VEGF in promoting BCEC migration”. Besides, the “transcription of VEGF, VEGFR2, GLUT1 & 4 and total VEGFR2 protein expression” value in series [1] was “neither transcription of VEGF, VEGFR2 and GLUT] & 4 nor total VEGFR2 protein expression was significantly changed”. Also, in series [2] (5 mM ManN), the “toxicity on hRMECs” value is “minimal toxicity”. Also, the “additivity with VEGF on hRMEC proliferation” value in series [2] (with VEGF) is reported as “dose-dependent additivity with VEGF”.
